Tests used:
[1] = biological target: T1, Beta-2 adrenergic receptor (Homo sapiens, UniProt P07550); assay: Inhibitory activity against CHO cells expressing human Beta-2 adrenergic receptor with [125I]-iodocyanopindolol; type: cell-based
Target sequence in this assay (P07550 whole entry): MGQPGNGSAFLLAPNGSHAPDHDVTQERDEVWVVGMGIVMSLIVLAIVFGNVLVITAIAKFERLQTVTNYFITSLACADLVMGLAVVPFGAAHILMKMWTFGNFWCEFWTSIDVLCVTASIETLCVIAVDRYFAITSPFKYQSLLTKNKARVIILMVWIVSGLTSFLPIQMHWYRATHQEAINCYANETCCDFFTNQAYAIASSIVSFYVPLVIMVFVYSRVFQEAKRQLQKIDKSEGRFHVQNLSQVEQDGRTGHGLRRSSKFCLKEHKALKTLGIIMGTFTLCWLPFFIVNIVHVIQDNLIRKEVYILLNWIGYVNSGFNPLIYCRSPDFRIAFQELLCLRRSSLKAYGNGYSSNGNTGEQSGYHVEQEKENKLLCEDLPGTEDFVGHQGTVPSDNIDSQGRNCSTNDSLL

[2] = biological target: T2, Beta-1 adrenergic receptor (Homo sapiens, UniProt P08588); assay: Compound was evaluated for its inhibitory activity against CHO cells expressing the cloned human Beta-1 adrenergic receptor in the presence of [125I]iodocyanopindolol; type: cell-based
Target sequence in this assay (P08588 whole entry): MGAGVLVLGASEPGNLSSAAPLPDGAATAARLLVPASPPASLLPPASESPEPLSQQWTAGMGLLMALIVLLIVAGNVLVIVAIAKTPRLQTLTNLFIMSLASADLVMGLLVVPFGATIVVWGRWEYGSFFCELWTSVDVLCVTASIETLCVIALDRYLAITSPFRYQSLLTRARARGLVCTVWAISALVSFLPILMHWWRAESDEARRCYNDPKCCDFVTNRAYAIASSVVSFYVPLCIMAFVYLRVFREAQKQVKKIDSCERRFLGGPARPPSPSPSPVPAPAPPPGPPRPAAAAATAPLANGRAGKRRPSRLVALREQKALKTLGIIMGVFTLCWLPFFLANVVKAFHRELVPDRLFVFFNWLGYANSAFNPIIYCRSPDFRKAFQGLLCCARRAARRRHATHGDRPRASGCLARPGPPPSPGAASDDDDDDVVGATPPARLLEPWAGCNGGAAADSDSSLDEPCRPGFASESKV

[3] = biological target: T3, Beta-3 adrenergic receptor (Homo sapiens, UniProt P13945); assay: Compound was evaluated for its inhibitory activity against human beta-3 adrenergic receptor (AR) at a concentration of 100 nM; type: functional
Target sequence in this assay (P13945 whole entry): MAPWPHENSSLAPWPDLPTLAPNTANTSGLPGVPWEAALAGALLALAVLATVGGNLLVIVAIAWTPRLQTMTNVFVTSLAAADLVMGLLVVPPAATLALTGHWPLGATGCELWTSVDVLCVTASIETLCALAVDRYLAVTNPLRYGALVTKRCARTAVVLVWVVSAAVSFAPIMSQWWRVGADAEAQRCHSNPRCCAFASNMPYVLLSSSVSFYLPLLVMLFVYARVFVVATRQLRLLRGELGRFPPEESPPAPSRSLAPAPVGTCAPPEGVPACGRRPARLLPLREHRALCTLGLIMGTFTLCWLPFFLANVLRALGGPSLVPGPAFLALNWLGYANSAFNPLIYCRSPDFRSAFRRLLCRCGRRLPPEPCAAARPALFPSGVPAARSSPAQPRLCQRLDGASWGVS

[4] = biological target: T2, Beta-1 adrenergic receptor; assay: Compound was evaluated for its inhibitory activity against CHO cells expressing the cloned human beta-1 adrenergic receptor (AR) in the presence of [125I]iodocyanopindolol; type: functional, cell-based
Target sequence in this assay (P08588 whole entry): as the sequence (P08588 whole entry) above

[5] = biological target: T1, Beta-2 adrenergic receptor; assay: Compound was evaluated for its inhibitory activity against CHO cells expressing the cloned human beta-2 adrenergic receptor (AR) in the presence of [125I]-iodocyanopindolol; type: functional, cell-based
Target sequence in this assay (P07550 whole entry): as the sequence (P07550 whole entry) above

[6] = biological target: T1, Beta-2 adrenergic receptor; assay: Compound was evaluated for its inhibitory activity against human beta-2 adrenergic receptor (AR); type: functional
Target sequence in this assay (P07550 whole entry): as above

[7] = biological target: T2, Beta-1 adrenergic receptor; assay: (§1) Compound was evaluated for its adenylyl cyclase activation at human beta-1 adrenergic receptor (AR); type: functional; design: concentration or dose not given beside the values
Target sequence in this assay (P08588 whole entry, looked up): as the sequence (P08588 whole entry) above

[8] = biological target: T2, Beta-1 adrenergic receptor; assay: Compound was evaluated for its inhibitory activity against human beta-1 adrenergic receptor (AR); type: functional
Target sequence in this assay (P08588 whole entry): as above

[9] = biological target: T3, Beta-3 adrenergic receptor; assay: Inhibitory activity against human beta-3 adrenergic receptor (AR); type: functional
Target sequence in this assay (P13945 whole entry): as the sequence (P13945 whole entry) above

[10] = biological target: T3, Beta-3 adrenergic receptor; assay: Adenylyl cyclase activation at human beta-3 adrenergic receptor (AR); type: functional; design: concentration or dose not given beside the values
Target sequence in this assay (P13945 whole entry, looked up): as the sequence (P13945 whole entry) above

[11] = biological target: T2, Beta-1 adrenergic receptor; assay: Compound was evaluated for its inhibitory activity against CHO cells expressing the cloned human beta-1 adrenergic receptor (AR) in the presence of [125I]-iodocyanopindolol; type: cell-based
Target sequence in this assay (P08588 whole entry): as the sequence (P08588 whole entry) above

[12] = biological target: T2, Beta-1 adrenergic receptor; assay: as §1
Target sequence in this assay (P08588 whole entry, looked up): as the sequence (P08588 whole entry) above

[13] = biological target: T1, Beta-2 adrenergic receptor; assay: Compound was evaluated for its adenylyl cyclase activation at human beta-2 adrenergic receptor (AR); type: functional
Target sequence in this assay (P07550 whole entry, looked up): as the sequence (P07550 whole entry) above

Compound	IC50 [1]	IC50 [2]	EC50 [3]	IC50 [4]	IC50 [5]	EC50 [6]	Activation [7]	EC50 [8]	EC50 [9]	Activation [10]	IC50 [11]	Activation [12]	Activation [13]
CCCCCCNC(=O)Nc1ccc(S(=O)(=O)Nc2ccc3cc(CC4NCCc5cc(O)c(O)cc54)ccc3c2)cc1 (stereo not given)	300 nM	1000 nM	7 nM	–	–	–	–	–	–	–	–	–	–
CCCCCCNC(=O)Nc1ccc(S(=O)(=O)Nc2cccc(-c3ccc(CC4NCCc5cc(O)c(O)cc54)cc3)c2)cc1 (stereo not given)	–	–	–	10000 nM	32000 nM	1300 nM	69%	970 nM	140 nM	100%	–	–	–
CCCCCCNC(=O)Nc1ccc(S(=O)(=O)Nc2ccc(CC3NCCc4cc(O)c(O)cc43)cc2)cc1 (stereo not given)	200 nM	1200 nM	–	–	–	–	–	–	66 nM	82%	–	–	–
CCCCCCNC(=O)Nc1ccc(S(=O)(=O)Nc2ccc3cc(OCC4NCCc5cc(O)c(O)cc54)ccc3c2)cc1 (stereo not given)	> 100000 nM	80000 nM	–	–	–	–	–	–	78 nM	72%	–	–	–
COc1cc(-c2ccc(CC3NCCc4cc(O)c(O)cc43)cc2)cc(OC)c1OC (stereo not given)	760 nM	–	–	–	–	1500 nM	45%	6100 nM	27 nM	77%	1800 nM	–	–
CCCCCCNC(=O)Nc1ccc(S(=O)(=O)Nc2cccc(-c3ccc(OCC4NCCc5cc(O)c(O)cc54)cc3)c2)cc1 (stereo not given)	990 nM	6500 nM	10 nM	–	–	–	–	–	–	–	–	–	–
COc1cc(C[C@@H]2NCCc3cc(O)c(O)cc32)cc(OC)c1OC [TRETOQUINOL]	–	–	–	–	–	–	–	–	1.7 nM	92%	–	–	–
CCCCCCNC(=O)Nc1ccc(S(=O)(=O)Nc2ccc(-c3ccc(OCC4NCCc5cc(O)c(O)cc54)cc3)cc2)cc1 (stereo not given)	–	2000 nM	–	–	160 nM	580 nM	–	2400 nM	16 nM	72%	–	23%	–
CCCCCCNC(=O)Nc1ccc(S(=O)(=O)Nc2cccc(-c3cccc(CC4NCCc5cc(O)c(O)cc54)c3)c2)cc1 (stereo not given)	710 nM	–	–	530 nM	–	2700 nM	22%	> 10000 nM	360 nM	62%	–	–	–
CCCCCCNC(=O)Nc1ccc(S(=O)(=O)Nc2ccc(-c3ccc(CC4NCCc5cc(O)c(O)cc54)cc3)cc2)cc1 (stereo not given)	–	–	–	3000 nM	3400 nM	340 nM	44%	1800 nM	6 nM	91%	–	–	–
CCCCCCNC(=O)Nc1ccc(S(=O)(=O)Nc2ccc(-c3cccc(CC4NCCc5cc(O)c(O)cc54)c3)cc2)cc1 (stereo not given)	100000 nM	–	–	100000 nM	–	> 1000 nM	12%	> 1000 nM	600 nM	64%	–	–	33%
COc1c(I)cc(CC2NCCc3nc(N)sc32)cc1I (stereo not given)	56 nM	–	–	–	–	–	–	–	800 nM	36%	–	–	–
CCCCCCNC(=O)Nc1ccc(S(=O)(=O)Nc2ccc(OCC3NCCc4cc(O)c(O)cc43)cc2)cc1 (stereo not given)	300 nM	1000 nM	4 nM	–	–	–	–	–	–	–	–	–	–

Source: ChEMBL document CHEMBL1132774, “Tetrahydroisoquinoline derivatives containing a benzenesulfonamide moiety as potent, selective human beta3 adrenergic receptor agonists” (Bioorg Med Chem Lett, 2000)
